Among the test systems are NCI-H23; SNB-75; SK-MEL-28; BT-549; OVCAR-4; NCI-H522; 786-0; IGROV-1; U-251; EKVX; TK-10; MOLT-4; NCI-H226; RPMI-8226; HCT-116; CAKI-1; MCF7; OVCAR-8; HT-29; A498.
Common to all, as to assay: inhibition of tumour cell growth, NCI panel, 48 h

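A five-concentration, 48-hour dose response in 96-well plates underlies each endpoint, interpolated linearly between surrounding concentrations. The concentration for 50% growth inhibition is given as GI50.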 Calls of active or inactive are those of the source. Cut-off read from the data, not from the text of the source: active = GI50 up to about 1.1 µM and inactive = higher. Where only a bound is given, the exact number is not on record here.

Consider ten compounds from ChEMBL document CHEMBL1201862, “PubChem BioAssay data set” (2004).

Take `N/C(=N\O)N/N=C/c1cc(Br)cc(Br)c1O`: the GI50 was 7.06 µM (inactive) in the assay with NCI-H23; 2.86 µM (inactive) with SNB-75; 8.73 µM (inactive) with SK-MEL-28; 2.44 µM (inactive) with BT-549; 4.23 µM (inactive) with OVCAR-4; 16.2 µM (inactive) in the assay with NCI-H522. For the same compound, the GI50 with 786-0 is 1.91 µM (inactive); in the assay with IGROV-1, 0.507 µM (active); with U-251 it was 2.78 µM (inactive); in the assay with EKVX, 14.9 µM (inactive); in the assay with TK-10, 5.35 µM (inactive); in the assay on MOLT-4, 1.12 µM (active). Also, the GI50 in the assay on NCI-H226 was 1.29 µM (inactive); in the assay on RPMI-8226, 2.61 µM (inactive); in the assay with HCT-116, 4.24 µM (inactive); in the assay on CAKI-1, 0.461 µM (active); with MCF7, 6.21 µM (inactive); in the assay on OVCAR-8 it was 2.37 µM (inactive). Also, the figures for the GI50 with HT-29 and with A498 were 11.4 µM (inactive) and 3.96 µM (inactive), respectively.
As to `O=C(N/N=C\c1cccs1)c1ccncc1`, the GI50 with NCI-H23, in the assay on SNB-75, in the assay with SK-MEL-28, with BT-549, in the assay with OVCAR-4 and with NCI-H522 was > 100 µM (inactive) each time. The GI50 in the assay on 786-0, in the assay on IGROV-1, with U-251, in the assay on EKVX, in the assay with TK-10 and in the assay on MOLT-4 was > 100 µM (inactive) each time. The GI50 in the assay on NCI-H226, with RPMI-8226, with HCT-116, in the assay with CAKI-1, with MCF7 and in the assay on OVCAR-8 was > 100 µM (inactive) throughout. Moreover, the GI50 with HT-29 and in the assay on A498 was > 100 µM (inactive) in each case.
For the compound `CCCCCCCCCCCCCCCCNc1ccn(C2CC(O)C(COC(c3ccccc3)(c3ccccc3)c3ccc(OC)cc3)O2)c(=O)n1` (stereo not given), the GI50 in the assay with NCI-H23, in the assay on SNB-75, in the assay with SK-MEL-28, in the assay with BT-549, in the assay on OVCAR-4 and in the assay with NCI-H522 was > 100 µM (inactive) in each case. For the same compound, the GI50 in the assay with 786-0 is > 100 µM (inactive); in the assay on IGROV-1, > 100 µM (inactive); in the assay with U-251, 64.1 µM (inactive); in the assay on EKVX, > 100 µM (inactive); with TK-10, > 100 µM (inactive); in the assay on MOLT-4 it was 49.3 µM (inactive). Also, the GI50 in the assay with NCI-H226 is > 100 µM (inactive); with RPMI-8226 it was > 100 µM (inactive); in the assay with HCT-116, 93.5 µM (inactive); with CAKI-1 it was > 100 µM (inactive); in the assay with MCF7, > 100 µM (inactive); in the assay with OVCAR-8 it was > 100 µM (inactive). The GI50 in the assay with HT-29 and in the assay on A498 was > 100 µM (inactive) in each case.
On to `CC1=C(C(=S)Nc2ccc(Cl)c(C(=O)OC(C)C)c2)SCCO1`, for which the GI50 with NCI-H23 was 20.6 µM (inactive); in the assay with SNB-75, 20.1 µM (inactive); in the assay with SK-MEL-28, 17.9 µM (inactive); in the assay with BT-549, 17.7 µM (inactive); in the assay with OVCAR-4, 12.3 µM (inactive); in the assay on NCI-H522 it was 21.4 µM (inactive). The GI50 with 786-0 is 16 µM (inactive); with IGROV-1, 16.6 µM (inactive); in the assay with U-251 it was 17.6 µM (inactive); in the assay with EKVX it was 19.1 µM (inactive); with TK-10, 22.2 µM (inactive); in the assay with MOLT-4, 15.7 µM (inactive). Also, the GI50 in the assay with NCI-H226 is 22.2 µM (inactive); in the assay on RPMI-8226, 21.9 µM (inactive); in the assay with HCT-116 it was 15.3 µM (inactive); in the assay on CAKI-1, 24.2 µM (inactive); in the assay with MCF7, 32.1 µM (inactive); with OVCAR-8 it was 20 µM (inactive). Moreover, the GI50 in the assay on HT-29 is 18.6 µM (inactive); with A498 it was 16.1 µM (inactive).
On to `CC(=O)N1c2ccccc2C(C)(C)OC1C(Cl)(Cl)Cl` (stereo not given), for which the GI50 in the assay on NCI-H23 was 34.1 µM (inactive); in the assay with SNB-75, 17.1 µM (inactive); in the assay with SK-MEL-28, 47.6 µM (inactive); with BT-549, 35.8 µM (inactive); in the assay with OVCAR-4 it was 42.5 µM (inactive); in the assay on NCI-H522, 23.3 µM (inactive). The GI50 is 39 µM (inactive) with 786-0; 41.8 µM (inactive) in the assay with IGROV-1; 33.3 µM (inactive) in the assay with U-251; 26.2 µM (inactive) in the assay with EKVX; 35.9 µM (inactive) in the assay with TK-10; 14.4 µM (inactive) in the assay on MOLT-4. Moreover, the GI50 with NCI-H226 was 87.7 µM (inactive); with RPMI-8226, 14.1 µM (inactive); in the assay with HCT-116 it was 28.8 µM (inactive); with CAKI-1, 46.6 µM (inactive); in the assay with MCF7, 23.6 µM (inactive); in the assay on OVCAR-8, 39.5 µM (inactive). In addition, the figures for the GI50 in the assay with HT-29 and with A498 were 24.2 µM (inactive) and 37 µM (inactive), respectively.
Consider `CCCCC1Cc2cc(OC)ccc2-c2n1c1cc(OC)ccc1[n+]2C.CCCCC1Cc2cc(OC)ccc2-c2n1c1ccc(OC)cc1[n+]2C` (stereo not given), for which the GI50 in the assay with NCI-H23 is 0.839 µM (active); in the assay with SNB-75, 6.19 µM (inactive); in the assay on SK-MEL-28, 6.3 µM (inactive); with BT-549 it was 1.66 µM (inactive); with OVCAR-4 it was 2.31 µM (inactive); with NCI-H522 it was 0.681 µM (active). Besides, the GI50 in the assay on 786-0 was 7.13 µM (inactive); in the assay on IGROV-1, 1.6 µM (inactive); in the assay with U-251, 0.332 µM (active); with EKVX it was 0.466 µM (active); in the assay on TK-10, 2.18 µM (inactive); in the assay on MOLT-4, 4.79 µM (inactive). Further, the GI50 in the assay with NCI-H226 is 2.92 µM (inactive); in the assay with RPMI-8226 it was 0.221 µM (active); with HCT-116 it was 3.22 µM (inactive); in the assay on CAKI-1, 35.8 µM (inactive); in the assay with MCF7 it was 0.953 µM (active); in the assay on OVCAR-8, 2.75 µM (inactive). The GI50 in the assay on HT-29 is 1.97 µM (inactive); in the assay with A498 it was 16.9 µM (inactive).
With `C#CC1NC(=O)C1N(CC)CC` (stereo not given), the GI50 is > 100 µM (inactive) in the assay with NCI-H23; 14.6 µM (inactive) in the assay on SNB-75; > 100 µM (inactive) in the assay with SK-MEL-28; > 100 µM (inactive) in the assay on BT-549; > 100 µM (inactive) in the assay on OVCAR-4; > 100 µM (inactive) with NCI-H522. Besides, the GI50 in the assay on 786-0, with IGROV-1, in the assay on U-251, in the assay on EKVX, with TK-10 and in the assay on MOLT-4 was > 100 µM (inactive) throughout. The GI50 with NCI-H226 is > 100 µM (inactive); in the assay with RPMI-8226, > 100 µM (inactive); in the assay on HCT-116 it was > 100 µM (inactive); in the assay with CAKI-1, 86.5 µM (inactive); with MCF7, > 100 µM (inactive); in the assay on OVCAR-8, > 100 µM (inactive). Also, the GI50 in the assay on HT-29 and with A498 was > 100 µM (inactive) each time.
For `Cc1ccc(S(=O)(=O)N/N=C2/CC[C@H](C(C)(C)C)C[C@@H]2C)cc1`, the GI50 with NCI-H23 was 17.1 µM (inactive); with SNB-75, 17.8 µM (inactive); in the assay with SK-MEL-28, 17 µM (inactive); in the assay on BT-549, 16.2 µM (inactive); with OVCAR-4, 0.574 µM (active); in the assay with NCI-H522 it was > 10 µM (inactive). Moreover, the GI50 with 786-0 is 17.1 µM (inactive); in the assay on IGROV-1, 14.9 µM (inactive); in the assay with U-251, 17.4 µM (inactive); in the assay on EKVX, 18 µM (inactive); in the assay on TK-10 it was 16.4 µM (inactive); with MOLT-4, 12.5 µM (inactive). The GI50 in the assay on NCI-H226 was 13.8 µM (inactive); in the assay on RPMI-8226 it was 33.4 µM (inactive); with HCT-116, 14.8 µM (inactive); in the assay on CAKI-1, 13.5 µM (inactive); in the assay with MCF7, 18.5 µM (inactive); in the assay with OVCAR-8 it was 16 µM (inactive). Also, the GI50 in the assay on HT-29 was 17.1 µM (inactive); in the assay on A498, 17.6 µM (inactive).
As to `COc1ccc(/C=C(\NC(=O)c2ccccc2)C(=O)NN(C)c2ccnc3cc(Cl)ccc23)cc1OC`, the GI50 in the assay on NCI-H23 was 24 µM (inactive); with SNB-75, 32.2 µM (inactive); with SK-MEL-28, 26 µM (inactive); in the assay on BT-549, 20.4 µM (inactive); with OVCAR-4, 30.7 µM (inactive); in the assay with NCI-H522, 21.8 µM (inactive). The GI50 is 27.6 µM (inactive) in the assay with 786-0; 17.2 µM (inactive) in the assay on IGROV-1; 19.7 µM (inactive) in the assay with U-251; 50.7 µM (inactive) in the assay on EKVX; 36.7 µM (inactive) in the assay on TK-10; 18.2 µM (inactive) in the assay on MOLT-4. Moreover, the GI50 in the assay on NCI-H226 was 19.1 µM (inactive); with RPMI-8226, 20 µM (inactive); in the assay with HCT-116, 34.6 µM (inactive); with CAKI-1, 28.8 µM (inactive); in the assay with MCF7, 19.8 µM (inactive); in the assay with OVCAR-8 it was 23.4 µM (inactive). For the same compound, the GI50 was 34.7 µM (inactive) in the assay with HT-29 and > 100 µM (inactive) in the assay on A498.
Take `CCc1nc(N)nc(N)c1-c1ccc(N2CCNCC2)c([N+](=O)[O-])c1`: the GI50 is 7.85 µM (inactive) with NCI-H23; 36.6 µM (inactive) in the assay on SNB-75; 40.5 µM (inactive) in the assay with SK-MEL-28; 45.9 µM (inactive) in the assay on BT-549; 32.7 µM (inactive) in the assay with OVCAR-4; 24.4 µM (inactive) with NCI-H522. Besides, the GI50 with 786-0 is 5.2 µM (inactive); with IGROV-1, 7.55 µM (inactive); in the assay on U-251, 6.03 µM (inactive); in the assay with EKVX, 23.8 µM (inactive); in the assay on TK-10 it was > 100 µM (inactive); with MOLT-4 it was 5.65 µM (inactive). The GI50 is 65.9 µM (inactive) with NCI-H226; 29.5 µM (inactive) in the assay with RPMI-8226; 1.77 µM (inactive) in the assay with HCT-116; 64.3 µM (inactive) in the assay with CAKI-1; 12.4 µM (inactive) with MCF7; 6.7 µM (inactive) with OVCAR-8. The GI50 in the assay on HT-29 is 4.47 µM (inactive); in the assay with A498, 39.7 µM (inactive).
